Data on three compounds can be found in paper PMC8556396, “Statin-mediated disruption of Rho GTPase prenylation and activity inhibits respiratory syncytial virus infection” (Communications Biology, 2021).

SMILES strings stand for the structures. Values joined by “and” are separate entries in the source; they are usually repeats but may differ in a detail not shown here. Equal entries are not always repeated.

For data set [1] the following is noted: in vivo; cited from earlier work.
Another data set deals with RSV A2. The data set can be described thus: Immunofluorescence staining and microscopy of RSV F and N.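 For RSV F intensity (a.u.): fluorescence normalized to total nuclear count.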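 For RSV N intensity (a.u.): fluorescence normalized to total nuclear count.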 Particulars: for RSV F intensity (a.u.): Fig 5D; for RSV N intensity (a.u.): Fig 5E.
The subject of a further data set is hepatitis D. Also noted: method as in PMID 26189433. The note with it: oral administration, chronically infected patients; cited from earlier work.
Another data set relates to RSV. The arrangement: method as in PMID 11257039. Particulars: daily, 50 mg/kg, oral; cited from earlier work.
The mark [2] stands for this setting: FTI-276 0.5 uM, perillyl alcohol 0.5 mM.
The mark [3] stands for this setting: FTI-276 1 uM, perillyl alcohol 1 mM.

Experimental for RSV A2: HEp-2 cells were seeded to No. 1 glass coverslips (1014355117NR1, Thermo Fisher Scientific) for high-resolution confocal microscopy, or black, flat, microclear-bottom 96-well plates (655096, Greiner Bio-One) for high-throughput quantification of RSV F and N immunofluorescence. Cells were infected with RSV A2 (MOI 0.5). At 48 h p.i., cells were fixed in 4% paraformaldehyde for 30 min and permeabilized with 0.3% Triton X-100 for 10 min at room temperature. F and N proteins were probed using mouse anti-RSV F (RSV3216) and mouse anti-RSV N (RSV3132) mAbs (Bio-Rad Antibodies) diluted 1:500 in PBS + 0.1% Tween-20 (PBST), or mouse anti-RSV F mAb Alexa Fluor 488 conjugate (Millipore Sigma, 133/1H) diluted 1:200 in PBST over a 1-h incubation at room temperature. This was followed by detection with secondary anti-mouse Fab fragments conjugated to Alexa Fluor 488 (4408) or 647 (4410) (Cell Signaling Technology) diluted 1:1000 in PBST over a 1-h incubation at room temperature. Fluorescent images were acquired using either the Cellomics ArrayScan VTI HCS Reader at ×10 magnification (for quantification) or Olympus IX81 Spinning Disk Confocal microscope at ×60 magnification with oil immersion (for high-resolution images). F and N immunofluorescence was quantified in CellProfiler and normalized to total nuclear count.

Regarding `C=C(C)[C@@H]1CC=C(CO)CC1` [Perillyl alcohol, perillyl alcohol], in data set [1], the “tolerability” value is “well-tolerated in humans”. Besides, the “RSV F intensity (a.u.)” value in the data set with RSV A2 (setting [2]) was 4.838 a.u. and 4.168 a.u. and 3.383 a.u; with RSV A2 (setting [3]) it was 5.114 a.u. and 3.157 a.u; with RSV A2 (FTI-276 5 uM, perillyl alcohol 5 mM), 0.705 a.u. and 0.8175 a.u. and 0.8487 a.u. Further, the “RSV N intensity (a.u.)” value with RSV A2 (setting [2]) was 6.098 a.u. and 3.977 a.u. and 5.388 a.u. and 3.797 a.u; in the data set with RSV A2 (setting [3]), 3.037 a.u. and 4.82 a.u. and 2.725 a.u. and 4.829 a.u. Moreover, the “effect of prenyltransferase inhibitor on RSV A2 infection” value in the data set on RSV A2 (HEp-2, F and N immunofluorescence) is listed as “dose-dependently reduced RSV A2 infection”. Besides, the “reduction of N protein intensity” value with RSV A2 (relative to DMSO, 48 h p.i., PA 5.0 mM, EHT 1864 20.0 µM) turned out to be 82.7 ± 3.3%.

In the case of `NC(=O)N1CCC(CC(=O)N2CCC([C@H]3c4ncc(Br)cc4CCc4cc(Cl)cc(Br)c43)CC2)CC1` [Lonafarnib, lonafarnib], in the data set on hepatitis D, the “hepatitis D viral titers” value is given as “reduced hepatitis D viral titers”.

On to `CC[C@H](C)C(=O)O[C@H]1C[C@@H](C)C=C2C=C[C@H](C)[C@H](CC[C@@H]3C[C@@H](O)CC(=O)O3)[C@H]21` [Lovastatin, lovastatin], for which the “RSV infection in mice” value in the data set with RSV is reported as “inhibition of RSV in mice”.
